Earlier results as cited in US6515132B2, “Process for the preparation of rosiglitazone maleate” (priority 2000, dated 2003).

Details: dose given in diet; comparative activity data for thiazolidinediones being clinically progressed

Structure (SMILES) | Minimum effective dose [μmol/kg diet]
CN(CCOc1ccc(CC2SC(=O)NC2=O)cc1)c1ccccn1 (stereo not drawn) [Rosiglitazone, 5-[4-[2-(N-methyl-N-(2-pyridyl)amino)ethoxy]benzyl]thiazolidine-2,4-dione] | 3
O=C1NC(=O)C(Cc2ccc3c(c2)CC[C@H](Cc2ccccc2)O3)S1 (stereo partly drawn) [Englitazone] | 200
CN(CCOc1ccc(CC2SC(=O)NC2=O)cc1)c1ccccn1.O=C(O)/C=C\C(=O)O (stereo not drawn) [Rosiglitazone maleate, 5-[4-[2-(N-methyl-N-(2-pyridyl)amino)ethoxy]benzyl]thiazolidine-2,4-dione maleate] | 3
